Experimental data reported in patent publication US20230085307A1, “PYRIDAZINONE COMPOUND AND HERBICIDE” (NISSAN CHEMICAL CORPORATION, priority 2019, published 2023).

Key:
barnyard grass [1] = assay: Test Example 3: herbicidal effect by foliage application, Wagner pot (Table 18, symbol H); type: in vivo, barnyard grass (Echinochloa crus-galli)
Procedure, shortened: (§1)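 Plants were sown in alluvial soil held under 0.1–0.5 cm standing water and grown 14 days in a greenhouse at 25–30 °C. An emulsifiable formulation, water-diluted to the set dose, was then sprayed onto the foliage, and effects were scored three weeks later using previously defined criteria.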

Chinese sprangletop = assay: Test Example 3: herbicidal effect by foliage application, Wagner pot (Table 18, symbol D); type: in vivo, chinese sprangletop (Leptochloa chinensis)
Procedure, shortened: as §1

rice flat sedge = assay: Test Example 3: herbicidal effect by foliage application, Wagner pot (Table 18, symbol E); type: in vivo, rice flat sedge (Cyperus iria)
Procedure, shortened: as §1

southern crabgrass [2] = assay: Test Example 4: herbicidal effect by soil treatment (Table 19, symbol F); type: in vivo, southern crabgrass (Digitaria ciliaris); settings: amount of applied herbicide 320 g/ha
Procedure, shortened: (§2)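 Three weeks of greenhouse growth at 25° C. to 30° C. followed a uniform surface spray of water-diluted emulsion at a predetermined herbicide amount. Seeds had been sown beforehand under about 1.5 cm of sterilized diluvial soil. Grading followed criteria set out in an earlier test.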

green foxtail [3] = assay: Test Example 4: herbicidal effect by soil treatment (Table 19, symbol G); type: in vivo, green foxtail (Setaria viridis); settings: amount of applied herbicide 320 g/ha
Procedure, shortened: as §2

barnyard grass [4] = assay: Test Example 4: herbicidal effect by soil treatment (Table 19, symbol H); type: in vivo, barnyard grass (Echinochloa crus-galli); settings: amount of applied herbicide 320 g/ha
Procedure, shortened: as §2

wild oat [5] = assay: Test Example 4: herbicidal effect by soil treatment (Table 19, symbol I); type: in vivo, wild oat (Avena fatua); settings: amount of applied herbicide 320 g/ha
Procedure, shortened: as §2

blackgrass [6] = assay: Test Example 4: herbicidal effect by soil treatment (Table 19, symbol J); type: in vivo, blackgrass (Alopecurus myosuroides); settings: amount of applied herbicide 320 g/ha
Procedure, shortened: as §2

Italian ryegrass [7] = assay: Test Example 4: herbicidal effect by soil treatment (Table 19, symbol K); type: in vivo, Italian ryegrass (Lolium multiflorum); settings: amount of applied herbicide 320 g/ha
Procedure, shortened: as §2

windgrass [8] = assay: Test Example 4: herbicidal effect by soil treatment (Table 19, symbol L); type: in vivo, windgrass (Apera spica-venti); settings: amount of applied herbicide 320 g/ha
Procedure, shortened: as §2

velvetleaf [9] = assay: Test Example 4: herbicidal effect by soil treatment (Table 19, symbol M); type: in vivo, velvetleaf (Abutilon theophrasti); settings: amount of applied herbicide 320 g/ha
Procedure, shortened: as §2

redroot pigweed [10] = assay: Test Example 4: herbicidal effect by soil treatment (Table 19, symbol N); type: in vivo, redroot pigweed (Amaranthus retroflexus); settings: amount of applied herbicide 320 g/ha
Procedure, shortened: as §2

lambsquarters [11] = assay: Test Example 4: herbicidal effect by soil treatment (Table 19, symbol O); type: in vivo, lambsquarters (Chenopodium album); settings: amount of applied herbicide 320 g/ha
Procedure, shortened: as §2

chickweed [12] = assay: Test Example 4: herbicidal effect by soil treatment (Table 19, symbol P); type: in vivo, common chickweed (Stellaria media); settings: amount of applied herbicide 320 g/ha
Procedure, shortened: as §2

false cleavers [13] = assay: Test Example 4: herbicidal effect by soil treatment (Table 19, symbol Q); type: in vivo, false cleavers (Galium spurium); settings: amount of applied herbicide 320 g/ha
Procedure, shortened: as §2

persian speedwell [14] = assay: Test Example 4: herbicidal effect by soil treatment (Table 19, symbol R); type: in vivo, Persian speedwell (Veronica persica); settings: amount of applied herbicide 320 g/ha
Procedure, shortened: as §2

southern crabgrass [15] = assay: Test Example 5: herbicidal effect by foliage application, plastic box (Table 20, symbol F); type: in vivo, southern crabgrass (Digitaria ciliaris); settings: foliage application
Procedure, shortened: (§3)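 Plants sown in sterilized diluvial soil and grown 14 days in a greenhouse at 25° C to 30° C, then sprayed on the foliage with the compound's emulsion diluted in water to a predetermined herbicide amount. Injury to weeds and crops scored three weeks after application on a visual rating scale.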

green foxtail [16] = assay: Test Example 5: herbicidal effect by foliage application, plastic box (Table 20, symbol G); type: in vivo, green foxtail (Setaria viridis); settings: foliage application
Procedure, shortened: as §3

barnyard grass [17] = assay: Test Example 5: herbicidal effect by foliage application, plastic box (Table 20, symbol H); type: in vivo, barnyard grass (Echinochloa crus-galli); settings: foliage application
Procedure, shortened: as §3

wild oat [18] = assay: Test Example 5: herbicidal effect by foliage application, plastic box (Table 20, symbol I); type: in vivo, wild oat (Avena fatua); settings: foliage application
Procedure, shortened: as §3

blackgrass [19] = assay: Test Example 5: herbicidal effect by foliage application, plastic box (Table 20, symbol J); type: in vivo, blackgrass (Alopecurus myosuroides); settings: foliage application
Procedure, shortened: as §3

Italian ryegrass [20] = assay: Test Example 5: herbicidal effect by foliage application, plastic box (Table 20, symbol K); type: in vivo, Italian ryegrass (Lolium multiflorum); settings: foliage application
Procedure, shortened: as §3

windgrass [21] = assay: Test Example 5: herbicidal effect by foliage application, plastic box (Table 20, symbol L); type: in vivo, windgrass (Apera spica-venti); settings: foliage application
Procedure, shortened: as §3

velvetleaf [22] = assay: Test Example 5: herbicidal effect by foliage application, plastic box (Table 20, symbol M); type: in vivo, velvetleaf (Abutilon theophrasti); settings: foliage application
Procedure, shortened: as §3

redroot pigweed [23] = assay: Test Example 5: herbicidal effect by foliage application, plastic box (Table 20, symbol N); type: in vivo, redroot pigweed (Amaranthus retroflexus); settings: foliage application
Procedure, shortened: as §3

lambsquarters [24] = assay: Test Example 5: herbicidal effect by foliage application, plastic box (Table 20, symbol O); type: in vivo, lambsquarters (Chenopodium album); settings: foliage application
Procedure, shortened: as §3

chickweed [25] = assay: Test Example 5: herbicidal effect by foliage application, plastic box (Table 20, symbol P); type: in vivo, common chickweed (Stellaria media); settings: foliage application
Procedure, shortened: as §3

false cleavers [26] = assay: Test Example 5: herbicidal effect by foliage application, plastic box (Table 20, symbol Q); type: in vivo, false cleavers (Galium spurium); settings: foliage application
Procedure, shortened: as §3

persian speedwell [27] = assay: Test Example 5: herbicidal effect by foliage application, plastic box (Table 20, symbol R); type: in vivo, Persian speedwell (Veronica persica); settings: foliage application
Procedure, shortened: as §3

[28] = amount of applied herbicide 320 g/ha
[29] = 320 g/ha, evaluated three weeks after application
[30] = AAH 320 g/ha, three weeks after application

SMILES: CCCC(=O)Oc1c(C)nn(C)c(=O)c1-c1c(-c2cc(F)ccc2OC)sc2ccc(C)cc12 [2-151]
- herbicidal effect on H: barnyard grass (barnyard grass [1]; [28]): 3 (Herbicidal rate of 40% or more and less than 70%)
- herbicidal effect on D: Chinese sprangletop (Chinese sprangletop; [28]): 0 (Herbicidal rate of 5% or less (almost no effect))
- herbicidal effect on E: rice flat sedge (rice flat sedge; [28]): 3 (Herbicidal rate of 40% or more and less than 70%)
- F: southern crabgrass, herbicidal effect rating (southern crabgrass [2]): 0 (Herbicidal rate of 5% or less (almost no effect))
- G: green foxtail, herbicidal effect rating (green foxtail [3]): 0 (Herbicidal rate of 5% or less (almost no effect))
- H: barnyard grass, herbicidal effect rating (barnyard grass [4]): 0 (Herbicidal rate of 5% or less (almost no effect))
- I: wild oat, herbicidal effect rating (wild oat [5]): 0 (Herbicidal rate of 5% or less (almost no effect))
- J: blackgrass, herbicidal effect rating (blackgrass [6]): 0 (Herbicidal rate of 5% or less (almost no effect))
- K: Italian ryegrass, herbicidal effect rating (Italian ryegrass [7]): 0 (Herbicidal rate of 5% or less (almost no effect))
- L: windgrass, herbicidal effect rating (windgrass [8]): 0 (Herbicidal rate of 5% or less (almost no effect))
- M: velvetleaf, herbicidal effect rating (velvetleaf [9]): 0 (Herbicidal rate of 5% or less (almost no effect))
- N: redroot pigweed, herbicidal effect rating (redroot pigweed [10]): 4 (Herbicidal rate of 70% or more and less than 90%)
- O: lambsquarters, herbicidal effect rating (lambsquarters [11]): 4 (Herbicidal rate of 70% or more and less than 90%)
- P: chickweed, herbicidal effect rating (chickweed [12]): 1 (Herbicidal rate of 5% or more and less than 20%)
- Q: false cleavers, herbicidal effect rating (false cleavers [13]): 0 (Herbicidal rate of 5% or less (almost no effect))
- R: persian speedwell, herbicidal effect rating (persian speedwell [14]): 3 (Herbicidal rate of 40% or more and less than 70%)
- herbicidal effect on F: southern crabgrass (criteria 0-5) (southern crabgrass [15]; [29]): 0 (Herbicidal rate of 5% or less (almost no effect))
- herbicidal effect on G: green foxtail (criteria 0-5) (green foxtail [16]; [29]): 0 (Herbicidal rate of 5% or less (almost no effect))
- herbicidal effect on H: barnyard grass (criteria 0-5) (barnyard grass [17]; [29]): 0 (Herbicidal rate of 5% or less (almost no effect))
- herbicidal effect on I: wild oat (criteria 0-5) (wild oat [18]; [29]): 0 (Herbicidal rate of 5% or less (almost no effect))
- herbicidal effect on J: blackgrass (criteria 0-5) (blackgrass [19]; [29]): 0 (Herbicidal rate of 5% or less (almost no effect))
- herbicidal effect on K: Italian ryegrass (criteria 0-5) (Italian ryegrass [20]; [29]): 0 (Herbicidal rate of 5% or less (almost no effect))
- herbicidal effect on L: windgrass (criteria 0-5) (windgrass [21]; [29]): 0 (Herbicidal rate of 5% or less (almost no effect))
- herbicidal effect on M: velvetleaf (criteria 0-5) (velvetleaf [22]; [29]): 1 (Herbicidal rate of 5% or more and less than 20%)
- herbicidal effect on N: redroot pigweed (criteria 0-5) (redroot pigweed [23]; [29]): 3 (Herbicidal rate of 40% or more and less than 70%)
- herbicidal effect on O: lambsquarters (criteria 0-5) (lambsquarters [24]; [29]): 2 (Herbicidal rate of 20% or more and less than 40%)
- herbicidal effect on P: chickweed (criteria 0-5) (chickweed [25]; [29]): 4 (Herbicidal rate of 70% or more and less than 90%)
- herbicidal effect on Q: false cleavers (criteria 0-5) (false cleavers [26]; [29]): 2 (Herbicidal rate of 20% or more and less than 40%)
- herbicidal effect on R: persian speedwell (criteria 0-5) (persian speedwell [27]; [29]): 4 (Herbicidal rate of 70% or more and less than 90%)

SMILES: CCCC(=O)Oc1c(C)nn(C)c(=O)c1-c1c(-c2ccc3c(c2)OC(F)(F)O3)sc2ccccc12 [1-100]
- herbicidal effect on H (barnyard grass), rating 0-5 (barnyard grass [1]; 320 g/ha): 0 (Herbicidal rate of 5% or less (almost no effect))
- herbicidal effect on D (Chinese sprangletop), rating 0-5 (Chinese sprangletop; 320 g/ha): 0 (Herbicidal rate of 5% or less (almost no effect))
- herbicidal effect on E (rice flat sedge), rating 0-5 (rice flat sedge; 320 g/ha): 4 (Herbicidal rate of 70% or more and less than 90%)
- herbicidal effect rating, F: southern crabgrass (southern crabgrass [2]): 0 (Herbicidal rate of 5% or less (almost no effect))
- herbicidal effect rating, G: green foxtail (green foxtail [3]): 0 (Herbicidal rate of 5% or less (almost no effect))
- herbicidal effect rating, H: barnyard grass (barnyard grass [4]): 0 (Herbicidal rate of 5% or less (almost no effect))
- herbicidal effect rating, I: wild oat (wild oat [5]): 0 (Herbicidal rate of 5% or less (almost no effect))
- herbicidal effect rating, J: blackgrass (blackgrass [6]): 0 (Herbicidal rate of 5% or less (almost no effect))
- herbicidal effect rating, K: Italian ryegrass (Italian ryegrass [7]): 3 (Herbicidal rate of 40% or more and less than 70%)
- herbicidal effect rating, L: windgrass (windgrass [8]): 0 (Herbicidal rate of 5% or less (almost no effect))
- herbicidal effect rating, M: velvetleaf (velvetleaf [9]): 0 (Herbicidal rate of 5% or less (almost no effect))
- herbicidal effect rating, N: redroot pigweed (redroot pigweed [10]): 0 (Herbicidal rate of 5% or less (almost no effect))
- herbicidal effect rating, O: lambsquarters (lambsquarters [11]): 0 (Herbicidal rate of 5% or less (almost no effect))
- herbicidal effect rating, P: chickweed (chickweed [12]): 2 (Herbicidal rate of 20% or more and less than 40%)
- herbicidal effect rating, Q: false cleavers (false cleavers [13]): 2 (Herbicidal rate of 20% or more and less than 40%)
- herbicidal effect rating, R: persian speedwell (persian speedwell [14]): 5 (Herbicidal rate of 90% or more (almost completely withered))
- F: southern crabgrass, herbicidal effect (southern crabgrass [15]; [30]): 0 (Herbicidal rate of 5% or less (almost no effect))
- G: green foxtail, herbicidal effect (green foxtail [16]; [30]): 0 (Herbicidal rate of 5% or less (almost no effect))
- H: barnyard grass, herbicidal effect (barnyard grass [17]; [30]): 0 (Herbicidal rate of 5% or less (almost no effect))
- I: wild oat, herbicidal effect (wild oat [18]; [30]): 1 (Herbicidal rate of 5% or more and less than 20%)
- J: blackgrass, herbicidal effect (blackgrass [19]; [30]): 0 (Herbicidal rate of 5% or less (almost no effect))
- K: Italian ryegrass, herbicidal effect (Italian ryegrass [20]; [30]): 1 (Herbicidal rate of 5% or more and less than 20%)
- L: windgrass, herbicidal effect (windgrass [21]; [30]): 0 (Herbicidal rate of 5% or less (almost no effect))
- M: velvetleaf, herbicidal effect (velvetleaf [22]; [30]): 3 (Herbicidal rate of 40% or more and less than 70%)
- N: redroot pigweed, herbicidal effect (redroot pigweed [23]; [30]): 0 (Herbicidal rate of 5% or less (almost no effect))
- O: lambsquarters, herbicidal effect (lambsquarters [24]; [30]): 0 (Herbicidal rate of 5% or less (almost no effect))
- P: chickweed, herbicidal effect (chickweed [25]; [30]): 5 (Herbicidal rate of 90% or more (almost completely withered))
- Q: false cleavers, herbicidal effect (false cleavers [26]; [30]): 3 (Herbicidal rate of 40% or more and less than 70%)
- R: persian speedwell, herbicidal effect (persian speedwell [27]; [30]): 5 (Herbicidal rate of 90% or more (almost completely withered))
